Key:
Format in all cases: cell-based
Bacterial Challenges = assay: In can preservation challenge test (IBRG draft method), bacterial challenges; settings: 1000 ppm, acrylic ester and acrylonitrile polymer dispersion
Method: (§1) Tests were performed according to the IBRG draft method (5.2, June 2001). This briefly entails the substrate being dosed with the biocide and allowed to equilibrate. Samples are inoculated once per week for 4 weeks and checked for recovery of organisms at 1, 3 and 7 days after inoculation.
(§2) Results to show efficacy in a polymer based on an acrylic ester and acrylonitrile polymer dispersion using: • 1000 ppm CuHDO • 1000 ppm in-situ generated CuHDO (by blending within the matrix or medium, 315 ppm of basic copper carbonate containing 57.5% copper content with 3492 ppm of a 30% water soluble solution of potassium salt of N′-hydroxy-N-cyclohexyldiazenium oxide (KHDO))
(§3) Using the following performance rating: • P=Pass (0-100 colonies) • F=Fail (101->1000 colonies)

Fungal Challenges = assay: In can preservation challenge test (IBRG draft method), fungal challenges; settings: 1000 ppm, acrylic ester and acrylonitrile polymer dispersion
Method: as §1, §2, §3

[1] = test system: Bacterial and Fungal Challenges; assay: In can preservation challenge test (IBRG draft method), overall efficacy; settings: 1000 ppm, acrylic ester and acrylonitrile polymer dispersion
Method: as §1, §2, §3

fungi = assay: Surface protection, fungal resistance of coating (BS3900 G6); parameters: key: 0=no growth; 1=trace of growth; 2=growth on 1-10% of test face; 3=growth on 10-30% of test face; 4=growth on 30-70% of test face; 5=growth on 70-100% of test face
Method: Testing was performed according to the BS3900 G6 and BBA MOAT 33 methods for evaluation versus fungi and algae, respectively. The methods involve painting a substrate panel with the coating and leaching under running water for 72 hours. […] Performance is judged by comparing with suitable control samples i.e without biocide, a positive control and for fungi with substrate panels that have not been leached.
(§4) Performance rating of painted test substrates is as follows and a score of 0, 1 and 2 is considered as a pass • 0=no growth • 1=trace of growth • 2=growth on 1-10% of test face • 3=growth on 10-30% of test face • 4=growth on 30-70% of test face • 5=growth on 70-100% of test face. Surface Protection using CuHDO

algae = assay: Surface protection, algal resistance of coating (BBA MOAT 33); settings: after leaching with running water for 72 hours
Method: Testing was performed according to the BS3900 G6 and BBA MOAT 33 methods for evaluation versus fungi and algae, respectively. The methods involve painting a substrate panel with the coating and leaching under running water for 72 hours. The substrates are incubated for 56 days after being inoculated with fungi or algae. Performance is judged by comparing with suitable control samples i.e without biocide, a positive control and for fungi with substrate panels that have not been leached.
as §4

[2] = 0.15% by weight, after leaching with running water for 72 hours
[3] = 0.15% by weight, coating as applied
[4] = 0.2% by weight, after leaching with running water for 72 hours
[5] = 0.2% by weight, coating as applied
[6] = 1.5% by weight, after leaching with running water for 72 hours
[7] = 1.5% by weight, coating as applied
[8] = 0.5% by weight, after leaching with running water for 72 hours
[9] = 0.5% by weight, coating as applied

`[Cu+2].[O-]/N=[N+](\[O-])C1CCCCC1.[O-]/N=[N+](\[O-])C1CCCCC1` [CuHDO, copper salt of N′-hydroxy-N-cyclohexyl-diazenium oxide] was tested, and the “Bacterial Challenges” value (Bacterial Challenges; pH 5) was “P (P=Pass (0-100 colonies))”, the “Bacterial Challenges” value (Bacterial Challenges; pH 7) was “P (P=Pass (0-100 colonies))” and the “Bacterial Challenges” value (Bacterial Challenges; pH 9) was “P (P=Pass (0-100 colonies))”. For the same molecule, the “Fungal Challenges” value (Fungal Challenges; pH 5) was “F^2 (F=Fail (101->1000 colonies))”, the “Fungal Challenges” value (Fungal Challenges; pH 7) was “P (P=Pass (0-100 colonies))” and the “Fungal Challenges” value (Fungal Challenges; pH 9) was “P (P=Pass (0-100 colonies))”. The “Overall Efficacy” value ([1]; pH 5) was “F^2 (F=Fail (101->1000 colonies))”, the “Overall Efficacy” value ([1]; pH 7) was “P (P=Pass (0-100 colonies))” and the “Overall Efficacy” value ([1]; pH 9) was “P (P=Pass (0-100 colonies))”. For the same molecule, the “FUNGAL GROWTH ASSESSMENT Plaster Substrate 28 days” value (fungi; [2]) was 1, the “FUNGAL GROWTH ASSESSMENT Plaster Substrate 42 days” value (fungi; [2]) was 1 and the “FUNGAL GROWTH ASSESSMENT Plaster Substrate 56 days” value (fungi; [2]) was 2 (2=growth on 1-10% of test face). The “FUNGAL GROWTH ASSESSMENT Wood Substrate 28 days” value (fungi; [2]) was 1, the “FUNGAL GROWTH ASSESSMENT Wood Substrate 42 days” value (fungi; [2]) was 1 and the “FUNGAL GROWTH ASSESSMENT Wood Substrate 56 days” value (fungi; [2]) was 2 (2=growth on 1-10% of test face). For the same molecule, the “FUNGAL GROWTH ASSESSMENT Plaster Substrate 28 days” value (fungi; [3]) was 1, the “FUNGAL GROWTH ASSESSMENT Plaster Substrate 42 days” value (fungi; [3]) was 1 and the “FUNGAL GROWTH ASSESSMENT Plaster Substrate 56 days” value (fungi; [3]) was 1. For the same molecule, the “FUNGAL GROWTH ASSESSMENT Wood Substrate 28 days” value (fungi; [3]) was 1, the “FUNGAL GROWTH ASSESSMENT Wood Substrate 42 days” value (fungi; [3]) was 1 and the “FUNGAL GROWTH ASSESSMENT Wood Substrate 56 days” value (fungi; [3]) was 1. The “FUNGAL GROWTH ASSESSMENT Plaster Substrate 28 days” value (fungi; [4]) was 2 (2=growth on 1-10% of test face), the “FUNGAL GROWTH ASSESSMENT Plaster Substrate 56 days” value (fungi; [4]) was 3 (3=growth on 10-30% of test face) and the “FUNGAL GROWTH ASSESSMENT Wood Substrate 28 days” value (fungi; [4]) was 2 (2=growth on 1-10% of test face). For the same molecule, the “FUNGAL GROWTH ASSESSMENT Wood Substrate 56 days” value (fungi; [4]) was 3 (3=growth on 10-30% of test face), the “FUNGAL GROWTH ASSESSMENT Plaster Substrate 28 days” value (fungi; [5]) was 1 and the “FUNGAL GROWTH ASSESSMENT Plaster Substrate 56 days” value (fungi; [5]) was 1. For the same molecule, the “FUNGAL GROWTH ASSESSMENT Wood Substrate 28 days” value (fungi; [5]) was 1, the “FUNGAL GROWTH ASSESSMENT Wood Substrate 56 days” value (fungi; [5]) was 1 and the “FUNGAL GROWTH ASSESSMENT Plaster Substrate 28 days” value (fungi; [6]) was 1. For the same molecule, the “FUNGAL GROWTH ASSESSMENT Plaster Substrate 42 days” value (fungi; [6]) was 1, the “FUNGAL GROWTH ASSESSMENT Plaster Substrate 56 days” value (fungi; [6]) was 1 and the “FUNGAL GROWTH ASSESSMENT Wood Substrate 28 days” value (fungi; [6]) was 1. For the same molecule, the “FUNGAL GROWTH ASSESSMENT Wood Substrate 42 days” value (fungi; [6]) was 1, the “FUNGAL GROWTH ASSESSMENT Wood Substrate 56 days” value (fungi; [6]) was 1 and the “FUNGAL GROWTH ASSESSMENT Plaster Substrate 28 days” value (fungi; [7]) was 1. The “FUNGAL GROWTH ASSESSMENT Plaster Substrate 42 days” value (fungi; [7]) was 1, the “FUNGAL GROWTH ASSESSMENT Plaster Substrate 56 days” value (fungi; [7]) was 1 and the “FUNGAL GROWTH ASSESSMENT Wood Substrate 28 days” value (fungi; [7]) was 1. The “FUNGAL GROWTH ASSESSMENT Wood Substrate 42 days” value (fungi; [7]) was 1, the “FUNGAL GROWTH ASSESSMENT Wood Substrate 56 days” value (fungi; [7]) was 1 and the “ALGAL GROWTH ASSESSMENT 28 days” value (algae; 0.15% by weight) was 2/2. For the same molecule, the “ALGAL GROWTH ASSESSMENT 42 days” value (algae; 0.15% by weight) was 1/1, the “ALGAL GROWTH ASSESSMENT 56 days” value (algae; 0.15% by weight) was 0/1 and the “ALGAL GROWTH ASSESSMENT 28 days” value (algae; 0.2% by weight) was 0.1. For the same molecule, the “ALGAL GROWTH ASSESSMENT 56 days” value (algae; 0.2% by weight) was 1.2, the “ALGAL GROWTH ASSESSMENT 28 days” value (algae; 1.5% by weight) was 0/0 and the “ALGAL GROWTH ASSESSMENT 42 days” value (algae; 1.5% by weight) was 0/0. For the same molecule, the “ALGAL GROWTH ASSESSMENT 56 days” value (algae; 1.5% by weight) was 0/0.

In the case of `CCCCNC(=O)OCC#CI` [IPBC, reference compound], the “FUNGAL GROWTH ASSESSMENT Plaster Substrate 28 days” value (fungi; [8]) is reported as 1, the “FUNGAL GROWTH ASSESSMENT Plaster Substrate 56 days” value (fungi; [8]) is reported as 1 and the “FUNGAL GROWTH ASSESSMENT Wood Substrate 28 days” value (fungi; [8]) is reported as 1. The “FUNGAL GROWTH ASSESSMENT Wood Substrate 56 days” value (fungi; [8]) was 1, the “FUNGAL GROWTH ASSESSMENT Plaster Substrate 28 days” value (fungi; [9]) was 1 and the “FUNGAL GROWTH ASSESSMENT Plaster Substrate 56 days” value (fungi; [9]) was 1. For the same molecule, the “FUNGAL GROWTH ASSESSMENT Wood Substrate 28 days” value (fungi; [9]) was 1 and the “FUNGAL GROWTH ASSESSMENT Wood Substrate 56 days” value (fungi; [9]) was 1.

With `CCNc1nc(NC(C)(C)C)nc(SC)n1` [Terbutryn, reference compound] the “ALGAL GROWTH ASSESSMENT 28 days” value (algae; 0.5% by weight) was 0.0 and the “ALGAL GROWTH ASSESSMENT 56 days” value (algae; 0.5% by weight) was 0.0.
